Measured values as given in paper PMC8876975, “EGFR and COX-2 Dual Inhibitor: The Design, Synthesis, and Biological Evaluation of Novel Chalcones” (Molecules, 2022).
Where two headings read alike, the source gives them in different places.

How the values were obtained:
[1] = test system: human malignant melanoma (A375); experiment: MTT cytotoxicity assay, A375; type: cell-based; conditions: read-out: Antiproliferative Activity IC50 ± SEM, A375
[2] = target: T1, human recombinant sPLA2-V (Homo sapiens, UniProt P39877); experiment: Secretory PLA2-V activity assay (Ellman's photometric method)
T1 sequence (P39877 21-138): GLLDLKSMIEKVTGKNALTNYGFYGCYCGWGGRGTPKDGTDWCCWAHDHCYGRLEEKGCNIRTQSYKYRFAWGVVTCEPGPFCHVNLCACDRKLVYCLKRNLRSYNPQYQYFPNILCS

[3] = test system: human colon cancer (HT-29); experiment: MTT cytotoxicity assay, HT-29; type: cell-based; conditions: HT-29, MTT, 72 h, read-out: Antiproliferative Activity IC50 ± SEM, HT-29
[4] = test system: pancreatic cancer (PaCa-2); experiment: MTT cytotoxicity assay, PaCa-2; type: cell-based; conditions: PaCa-2, MTT, 72 h; read-out: Antiproliferative Activity IC50 ± SEM, PaCa-2
TNF-α = experiment: ELISA, LPS-induced TNF-α release in RAW264.7 macrophages; type: cell-based, mouse; conditions: for Relative Amount of LPS (TNF-α): RAW 264.7, compound 10 µM, TNF-α relative to LPS control = 100
[5] = test system: pancreatic ductal cancer (Panc-1); experiment: MTT cytotoxicity assay, Panc-1; type: cell-based; conditions: Panc-1, MTT, 72 h, read-out: Antiproliferative Activity IC50 ± SEM, Panc-1
human recombinant COX-2 = target: T2, human recombinant COX-2 (Homo sapiens, UniProt P35354); experiment: Cyclooxygenase assay (PGE2 quantification), COX-2; type: biochemical; conditions: mean ± SD; n = 3
T2 construct: purchased Cayman Chemicals
T2 sequence (P35354 18-604): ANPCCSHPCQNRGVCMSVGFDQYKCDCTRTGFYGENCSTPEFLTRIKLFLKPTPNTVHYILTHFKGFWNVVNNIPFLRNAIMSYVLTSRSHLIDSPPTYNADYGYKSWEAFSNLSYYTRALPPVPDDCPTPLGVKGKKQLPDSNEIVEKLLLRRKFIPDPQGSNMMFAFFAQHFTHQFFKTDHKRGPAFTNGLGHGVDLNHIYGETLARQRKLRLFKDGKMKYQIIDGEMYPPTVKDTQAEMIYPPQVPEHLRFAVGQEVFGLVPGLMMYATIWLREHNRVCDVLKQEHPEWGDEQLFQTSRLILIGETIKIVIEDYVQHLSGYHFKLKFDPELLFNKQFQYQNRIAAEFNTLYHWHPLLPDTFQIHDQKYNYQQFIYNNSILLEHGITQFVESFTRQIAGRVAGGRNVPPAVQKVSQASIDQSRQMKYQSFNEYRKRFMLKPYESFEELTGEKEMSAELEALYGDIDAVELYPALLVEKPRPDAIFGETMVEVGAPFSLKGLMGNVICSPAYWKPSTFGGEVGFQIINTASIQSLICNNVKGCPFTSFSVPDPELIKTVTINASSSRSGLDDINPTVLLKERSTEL

IL-6 = experiment: ELISA, LPS-induced IL-6 release in RAW264.7 macrophages; type: cell-based, mouse; conditions: for Relative Amount of LPS (IL-6): RAW 264.7, compound 10 µM, IL-6 relative to LPS control = 100
[6] = test system: normal human fetal lung fibroblast cell line, MRC5; experiment: Cell viability % (MTT, normal cell line); conditions: cell line and concentration not named in Table 1; supplement names MRC5 as normal cell line
lung cancer (H-460) = experiment: MTT cytotoxicity assay, H-460; type: cell-based; conditions: H-460, MTT, 72 h, read-out: Antiproliferative Activity IC50 ± SEM, H-460
EGFR = target: T3, EGFR (Homo sapiens, UniProt P00533); experiment: EGFR kinase inhibition assay (EGFR Kinase Assay Kit); type: biochemical; conditions: triplicates; read-out: EGFR Inhibition IC50 ± SEM
T3 construct: purchased PBS Bioscience (so in the source)

Sheep-derived COX-1 = target: T4, Sheep-derived COX-1 (Ovis aries, UniProt P05979); experiment: Cyclooxygenase assay (PGE2 quantification), COX-1
T4 sequence (P05979 25-600): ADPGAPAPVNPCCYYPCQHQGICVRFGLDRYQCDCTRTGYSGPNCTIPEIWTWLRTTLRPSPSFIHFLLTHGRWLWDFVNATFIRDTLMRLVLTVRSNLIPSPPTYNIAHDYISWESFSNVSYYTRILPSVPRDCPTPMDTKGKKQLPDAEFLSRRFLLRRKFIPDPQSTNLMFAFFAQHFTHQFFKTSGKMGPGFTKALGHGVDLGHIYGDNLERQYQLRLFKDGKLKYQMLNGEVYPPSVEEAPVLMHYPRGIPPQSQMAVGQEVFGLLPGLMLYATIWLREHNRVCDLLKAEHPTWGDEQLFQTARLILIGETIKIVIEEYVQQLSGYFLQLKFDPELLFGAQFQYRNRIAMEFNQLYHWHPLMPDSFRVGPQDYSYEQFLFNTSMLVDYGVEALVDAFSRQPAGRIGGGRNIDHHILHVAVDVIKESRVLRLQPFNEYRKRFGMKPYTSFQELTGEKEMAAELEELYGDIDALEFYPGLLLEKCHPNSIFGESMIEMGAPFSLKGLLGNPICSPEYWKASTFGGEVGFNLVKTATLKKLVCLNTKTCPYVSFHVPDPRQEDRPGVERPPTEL

[7] = Cell viability % (MTT, normal cell line); conditions: human, MRC5 normal fetal lung fibroblast cells
[8] = test system: normal human fetal lung fibroblast cell line, MRC5
[9] = read-out: sPLA2-V IC50, mean ± SD, n = 3
[10] = RAW 264.7, compound 10 µM for 2 h, then LPS 0.5 µg/mL for 22 h
[11] = read-out: COX-1 IC50, mean ± SD, n = 3
[12] = Mus musculus, RAW264.7, RAW 264.7, compound 10 µM for 2 h, then LPS 0.5 µg/mL for 22 h

| Compound | IC50 ([1]; 72 h) [µM] | IC50 [2, 9] [µM] | IC50 [3] [µM] | IC50 [4] [µM] | % Inhibition of TNF-α (TNF-α; [10]) [%] | Relative Amount of LPS (TNF-α) (TNF-α) | IC50 [5] [µM] | IC50 (human recombinant COX-2) [µM] | % Inhibition of IL-6 (IL-6; [10]) [%] | Relative Amount of LPS (IL-6) (IL-6) | IC50 (lung cancer (H-460)) [µM] | IC50 (EGFR) [µM] | IC50 (Sheep-derived COX-1; [11]) [µM] | other results |
| --- | --- | --- | --- | --- | --- | --- | --- | --- | --- | --- | --- | --- | --- | --- |
| CN(C)c1ccc(/C=C/C(=O)c2ccc(/N=N/c3ccc(O)c(C(=O)O)c3)cc2)cc1 [Compound C15, 5. -((E)-(4-((E)-3-(4-(Dimethylamino)phenyl)acryloyl)phenyl)diazenyl)-2-hydroxy benzoic acid] | 3.4 ± 1.8 | 2.01 ± 1.11 | 1.6 ± 0.2 | 2.3 ± 0.4 | 81 | 19 | 1.9 ± 0.1 | 0.95 ± 0.2 | 78 | 22 | 1.7 ± 0.2 | 2.8 ± 0.5 | 1.9 ± 0.23 | Cell Viability % [6]: 87.3 ± 2.1% |
| CN(C)c1ccc(/C=C/C(=O)c2cccc(/N=N/c3ccc(O)c4ccccc34)c2)cc1 [Compound C16, (E)-3-(4-(Dimethylamino)phenyl)-1-(3-((E)-(4-hydroxynaphthalen-1-yl)diazenyl)phenyl) prop-2-en-1-one] | – | – | – | 1.9 ± 0.5 | – | 28 | – | 6.89 ± 0.8 | – | 31 | – | 2.9 ± 0.4 | – | IC50 ([1]; Homo sapiens, A-375, 72 h): 2.8 ± 1 µM; IC50 [2]: 2.51 ± 1.05 µM; IC50 ([3]; Homo sapiens): 1.8 ± 0.4 µM; inhibition at 10 µM (TNF-α; [12]): 72%; IC50 ([5]; Homo sapiens): 1.8 ± 0.5 µM; inhibition at 10 µM (IL-6; [12]): 69%; viability at 72 h [7]: 92.5 ± 2%; IC50 (lung cancer (H-460); Homo sapiens, NCI-H460): 2.9 ± 1 µM; IC50 (Sheep-derived COX-1): 7.1 ± 1.29 µM |
| (E)-3-(4-Fluorophenyl)-1-(4-((E)-(4-hydroxynaphthalen-1-yl)diazenyl)phenyl) prop-2-en-1-one [Compound C10] | 2.6 ± 1 | 3.14 ± 0.64 | 1.1 ± 0.2 | 0.9 ± 0.4 | 76 | 24 | 1.6 ± 0.5 | 1.88 ± 0.4 | 77 | 23 | 1.2 ± 0.1 | 1.1 | 7.37 ± 1.44 | Cell Viability % [8]: 91.2 ± 2.9% |
